Common to all, as to assay type: biochemical
One test deals with T1, FXIII (Homo sapiens, UniProt P00488).
T1 construct: Kinetische Messung von FXIII in Plasmen; from tissue; host or cells: plasma
T1 sequence (P00488 1-732): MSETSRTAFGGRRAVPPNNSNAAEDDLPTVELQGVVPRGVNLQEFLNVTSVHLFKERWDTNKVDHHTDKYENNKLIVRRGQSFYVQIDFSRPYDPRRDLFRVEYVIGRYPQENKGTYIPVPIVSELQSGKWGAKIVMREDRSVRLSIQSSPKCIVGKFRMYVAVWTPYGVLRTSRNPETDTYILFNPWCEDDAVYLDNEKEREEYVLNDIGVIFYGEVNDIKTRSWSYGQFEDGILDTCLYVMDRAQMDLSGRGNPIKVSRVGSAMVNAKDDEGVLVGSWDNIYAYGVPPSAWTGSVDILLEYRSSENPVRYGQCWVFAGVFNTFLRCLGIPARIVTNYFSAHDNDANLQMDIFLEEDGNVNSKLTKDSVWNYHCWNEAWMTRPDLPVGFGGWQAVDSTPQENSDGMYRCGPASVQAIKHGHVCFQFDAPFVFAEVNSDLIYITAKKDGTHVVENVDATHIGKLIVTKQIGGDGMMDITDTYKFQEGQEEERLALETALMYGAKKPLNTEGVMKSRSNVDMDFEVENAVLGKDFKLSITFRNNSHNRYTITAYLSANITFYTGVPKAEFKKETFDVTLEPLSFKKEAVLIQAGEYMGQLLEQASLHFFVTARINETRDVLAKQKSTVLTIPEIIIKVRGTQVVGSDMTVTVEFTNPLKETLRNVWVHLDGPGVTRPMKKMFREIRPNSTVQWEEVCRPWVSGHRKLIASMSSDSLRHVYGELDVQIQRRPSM
Put plainly: Kinetic measurement of FXIII in plasma (Beispiel 1). The conditions noted are these: in Gegenwart von 5 mM Glycinethylester, otherwise identical conditions; 100 µl Citratplasma, 20 NIH Units Thrombin, 37°C, Exc. 310 nm, Em. 427 nm. The source says: Kinetische Messung von FXIII in Plasmen
Substratpeptid: Abz-Asn-Glu(CAD-DNP)-Glu-Gln-Val-Ser-Pro-Leu-Thr-Leu-Leu-Lys (2)
Die Substratsequenz Asn-Gln-Glu-Gln-Val-Ser-Pro-Leu-Thr-Leu-Leu-Lys ist einem natürlichen Substrat des FXIII entnommen und wurde bereits zur kinetischen Messungen von FXIII in der Literatur beschrieben (Kärpäti L. et al., Clin Chem., 46:12, 2000, 1946-55). Durch die erfindungsgemäße Modifikation dieses Peptides kann eine kinetische Messung in Plasmen durchgeführt werden (unterer Graph in Fig. 3). Die Messung wurde in diesem speziellen Fall wie folgt durchgeführt.

The target of test [1] is T2, gereinigte rekombinante humane Transglutaminase 2 (Homo sapiens, UniProt P21980).
T2 construct: His6
T2 sequence (P21980 1-687): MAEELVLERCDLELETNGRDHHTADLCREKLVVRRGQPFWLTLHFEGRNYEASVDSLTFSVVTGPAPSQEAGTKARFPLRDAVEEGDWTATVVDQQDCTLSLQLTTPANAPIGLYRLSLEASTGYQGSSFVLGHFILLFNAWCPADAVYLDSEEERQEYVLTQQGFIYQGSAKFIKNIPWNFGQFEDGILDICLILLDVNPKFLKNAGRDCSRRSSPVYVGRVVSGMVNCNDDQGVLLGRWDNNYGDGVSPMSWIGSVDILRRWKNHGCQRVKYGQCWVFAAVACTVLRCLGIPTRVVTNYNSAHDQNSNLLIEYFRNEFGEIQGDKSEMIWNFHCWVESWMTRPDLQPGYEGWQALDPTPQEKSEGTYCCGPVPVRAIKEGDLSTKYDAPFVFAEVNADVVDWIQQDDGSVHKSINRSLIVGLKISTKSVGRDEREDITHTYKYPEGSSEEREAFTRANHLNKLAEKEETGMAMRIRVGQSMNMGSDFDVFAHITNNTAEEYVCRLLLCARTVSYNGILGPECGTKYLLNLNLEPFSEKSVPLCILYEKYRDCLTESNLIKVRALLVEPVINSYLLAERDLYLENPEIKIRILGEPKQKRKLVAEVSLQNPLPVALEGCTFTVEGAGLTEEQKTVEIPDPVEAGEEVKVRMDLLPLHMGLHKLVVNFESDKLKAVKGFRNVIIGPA
Nature of the test: Selectivity of measurement of different transglutaminases, 2. Ansatz (Beispiel 4). Conditions: substrate 50 µM, rhHis6TG2 0,25 µM, 6 % DMSO, Exc. 310 nm, Em. 427 nm, 20 min. The source says:
(§1) Selektivität der Messungen verschiedener Transglutaminasen
2. Ansatz: Abz-Asn-Glu(CAD-DNP)-Glu-Gln-Val-Ser-Pro-Leu-Thr-Leu-Leu-Lys (2), Transglutaminase: gereinigte rekombinante humane Transglutaminase 2

Test [2] has as its target T3, Faktor XIII (Homo sapiens, UniProt P00488).
T3 construct: 100 µl humanem Plasma (durch Thrombin aktiviert); from tissue; host or cells: human plasma
T3 sequence (P00488 39-732): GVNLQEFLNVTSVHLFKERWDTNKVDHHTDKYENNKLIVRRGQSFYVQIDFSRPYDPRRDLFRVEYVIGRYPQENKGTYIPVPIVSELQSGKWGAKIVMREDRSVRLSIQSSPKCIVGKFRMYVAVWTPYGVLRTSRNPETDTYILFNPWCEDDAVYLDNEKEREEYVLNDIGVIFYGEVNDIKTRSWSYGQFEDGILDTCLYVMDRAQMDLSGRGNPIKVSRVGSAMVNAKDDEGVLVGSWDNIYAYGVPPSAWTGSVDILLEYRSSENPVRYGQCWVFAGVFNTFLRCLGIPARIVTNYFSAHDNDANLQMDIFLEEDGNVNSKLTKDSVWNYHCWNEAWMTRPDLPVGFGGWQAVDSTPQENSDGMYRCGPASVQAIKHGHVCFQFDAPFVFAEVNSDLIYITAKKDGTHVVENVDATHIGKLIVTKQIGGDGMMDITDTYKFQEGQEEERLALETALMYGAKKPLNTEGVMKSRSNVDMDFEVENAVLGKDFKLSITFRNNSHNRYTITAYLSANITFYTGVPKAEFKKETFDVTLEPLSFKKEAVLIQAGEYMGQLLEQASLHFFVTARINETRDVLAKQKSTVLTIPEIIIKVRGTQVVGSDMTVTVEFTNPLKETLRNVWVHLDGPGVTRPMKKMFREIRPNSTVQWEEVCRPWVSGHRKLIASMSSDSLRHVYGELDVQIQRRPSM
Nature of the test: Comparison of fluorescence-labelled transglutaminase peptide substrates, kinetic measurement (Beispiel 5). The conditions noted are these: 900 µl thrombin-containing 50 µM peptide solution + 100 µl Humanplasma. As to the method: Vergleich von Transglutaminasepeptidsubstraten
Für den Vergleich verschiedener mit fluoreszierenden Gruppen markierter Transglutaminasepeptidsubstrate wurden kinetische Messungen unter identischen Bedingungen durchgeführt. Dazu wurden zu 900 µl einer thrombinhaltigen 50 µM Lösung des Peptids 100 µl Humanplasma zugesetzt. Diese Bedingungen entsprechen denen, die bei heutzutage üblichen Faktor XIII - Messungen (wie bei dem Marktführer: Berichrom) zum Einsatz kommen. […] Auch die Verwendung von Abz als Fluorophor (Abz-Ahx-Glu(CAD-DNP)-Gln-Ile-Val, (Parameswaran et al.,
Um die Substrateigenschaften gegenüber den Substraten des Standes der Technik zu verbessern und somit klinisch relevante Messungen zu ermöglichen, wurde ausgehend von Verbindung 1 durch routinemäßiges Experimentieren das Peptidrückgrat so verändert, dass ein Substrat entstand, das durch FXIII schneller umgesetzt werden sollte (DNS-Ahx-Glu(CAD-DNP)-Glu-Gln-Val-Ser-Pro-Leu-Thr-Leu-Leu-Lys, 2).
Gegenüber dem Peptid, das in der Literatur (Kärpäti et al.) beschrieben wird, ist die Verbindung 2 um eine Aminosäure am N-Terminus verkürzt. Dahinter stand die Absicht, die im Stand der Technik bekannte und oben beschriebene fluorogene Teilstruktur zu erhalten. Es ist aber bekannt, dass gerade die Aminsäuren, die der Bindungsstelle von Enzymen direkt benachbart sind, besonders großen Einfluss auf die Substrateigenschaften von Peptiden, bzw. Proteinen haben. Deshalb wurde in einer weiteren Modifikation von Verbindung 1 die Verbindung 3 hergestellt. (DNS-Ahx-Asn-Glu(CAD-DNP)-Glu-Gln-Val-Ser-Pro-Leu-Thr-Leu-Leu-Lys, 3).
Beispielhaft wird dies im Vergleich in Fig. 6 anhand der Reaktion von 100 µl humanem Plasma (durch Thrombin aktiviert) und einer 50 µM Lösung des Peptides Abz-Asn-Glu(CAD-DNP)-Glu-Gln-Val-Ser-Pro-Leu-Thr-Leu-Leu-Lys (Verbindung 2)) gezeigt. Dem Vergleich der Strukturen und der Fluoreszenzdaten ist zu entnehmen, dass diese Wirkung auch für andere Transglutaminasen und andere Peptide Gültigkeit hat.

For test [3], the target named is T4, Faktor XIII (Homo sapiens, UniProt P00488).
T4 construct: 100 µl Citratplasma; from tissue; host or cells: citrate plasma
T4 sequence (P00488 1-732): T1 sequence (P00488 1-732)
Put plainly: Selectivity of measurement of different transglutaminases, 1. Ansatz (Beispiel 4). The conditions noted are these: substrate 50 µM, 100 µl Citratplasma, 6 % DMSO, Exc. 310 nm, Em. 427 nm, 20 min.
Excerpt: as §1
1. Ansatz: Substratpeptid: Abz-Ala-Pro-Glu(CAD-DNP)-Gln-Glu-Ala (3), Transglutaminase: Faktor XIII

Here are results for 6 molecules from patent publication EP1781807B1, “FLUORESCENCE-BASED KINETIC DETERMINATION OF TRANSGLUTAMINASE ACTIVITY” (N-Zyme BioTec GmbH, priority 2004, dated 2006).

Where a SMILES comes first, the peptide text is derived from it. [ ]: non-standard residue; d: D form. The star is where a group is joined. X1 = O=[N+]([O-])c1ccc(NCCCCCN*)c([N+](=O)[O-])c1; 2Abz = Nc1ccccc1C(=O)O; Ahx = NCCCCCC(=O)O

In the case of “2-Aminobenzoyl-L-asparaainyl-N^δ-[N-(2,4-dinitrophenyl)1-5-aminopentyl]-L-glutaminyl-L-glutamyl-L-glutaminyl-L-valinyl-L-serinyl-L-prolinyl-L-leucinyl-L-threoninyl-L-leucinyl-L-leucin-L-lysin [Verbindung 2]”, the “Signal (Fluoreszenzänderung)” value at FXIII is given as “Signal zusätzlich verstärkt”. Further, in test [1], the “Anstieg der Fluoreszenz” value is on record as “Ergebnis: kein Anstieg der Fluoreszenz”. Moreover, the “Steigerung der Fluoreszenz” value at Faktor XIII [2] was “wesentliche Verbesserung der Fluoreszenzsteigerung”.

In the case of `CC[C@H](C)[C@H](NC(=O)[C@H](CCC(N)=O)NC(=O)[C@H](CCC(=O)NCCCCCNc1ccc([N+](=O)[O-])cc1[N+](=O)[O-])NC(=O)CCCCCNC(=O)c1ccccc1N)C(=O)N[C@H](C(=O)O)C(C)C` [Abz-Ahx-Glu(CAD-DNP)-Gln-Ile-Val] (H-[2Abz][Ahx]E(X1)QIV-OH), the “Steigerung der Fluoreszenz” value at Faktor XIII [2] is “keine messbare Steigerung der Fluoreszenz”. In the case of `C[C@H](NC(=O)[C@H](CCC(=O)O)NC(=O)[C@H](CCC(N)=O)NC(=O)[C@H](CCC(=O)NCCCCCNc1ccc([N+](=O)[O-])cc1[N+](=O)[O-])NC(=O)[C@@H]1CCCN1C(=O)[C@H](C)NC(=O)c1ccccc1N)C(=O)O` [Verbindung 3] (H-[2Abz]APE(X1)QEA-OH), the “Anstieg der Fluoreszenz” value at Faktor XIII [3] was “Ergebnis: kein Anstieg der Fluoreszenz”. Turning to “DNS-Ahx-Asn-Glu(CAD-DNP)-Glu-Gln-Val-Ser-Pro-Leu-Thr-Leu-Leu-Lys”, the “Steigerung der Fluoreszenz” value on Faktor XIII [2] is “nicht zu dem gewünschten Ergebnis”. Still for that read-out and setting: the value for “DNS-Ahx-Gln(CAD-DNP)-Glu-lle-Val-OH [Verbindung 1]” was “keine messbare Steigerung der Fluoreszenz”; that for “DNS-Ahx-Glu(CAD-DNP)-Glu-Gln-Val-Ser-Pro-Leu-Thr-Leu-Leu-Lys” was “nicht zu einer Verbesserung”.
